We go through four substances from patent US9289500B2, “Saccharide-peptide hydrogels” (The Regents of the University of California, priority 2013, dated 2016).

Bridges are numbered along the chain shown (N, C = ends). Where no end group is shown, it is not given here. The star is where a group is joined. Acm = CC(=O)NC*

Data set [1] deals with Peripheral blood mononuclear cells (PBMC). In words: In vitro biocompatibility: stimulation assay of PBMC, cytokine mRNA. It counts as cell-based, LEW rat. The following applies: IFN-γ, CXCL1, IL6, GMCSF mRNA levels. On the procedure:
In Vitro Biocompatibility Assay of SP Hydrogel by Stimulation Assay of Peripheral Blood Mononuclear Cells (PBMC). PBMC from a normal LEW rat were isolated using Histopaque (Sigma-Aldrich, St. Louis, Mo.). 1×10^6 Cells were incubated with either 0.5 μL phosphate buffered saline (PBS), 0.5 mg vicryl suture, 0.5 mg hydrogel, 0.5 mg VS-polymer, 0.5 mg Cys-polymer, or 5 μg of LPS for 20 hours at 37° C. Differences in Ct between the target and control (Actb) mRNA (ΔCt) were used to quantify the relative level for each sample's mRNA expression.
Ex vivo biocompatibility of soluble polymers and SP hydrogel: An SP hydrogel was formed by in situ crosslinking by mixing a cysteine-functionalized (Cys-polymer) and a vinyl sulfone-functionalized (VS-polymer) saccharide-peptide copolymer under mild conditions, according to protocols presented in Chawla et al., Biomacromolecules (2011) 12:560-567, and Chawla et al., Biomaterials (2012) 33:6052-6060, which are incorporated herein in their entirety. […] The mRNA expression of inflammatory cytokines released by PBMC, including TNF-α (killer cell), IFN-γ (T-cell activation), CXCL1 (IL-8 analog, recruiter), IL6 (killer cell), and GMCSF (antigen presentation) was assessed to detect any immune stimulatory effect.

Data set [2] relates to TNF-α. In words: TNF-α mediated PUMA mRNA up-regulation in islets. It counts as cell-based. To be noted: human islets. An excerpt: PUMA and INS Pre-mNRA as markers for islet health in response to cytokine insults. Inflammation mediated proinflammatory cytokines, including Tumor necrosis factor (TNF)-α, Interleukin(IL)-1β, Interferon (IFN)-γ, play an important role on β cell death, leading to primary graft nonfunction. […] Elevated PUMA mRNA by TNF-α or the TNF-α+ and IFN-γ combination correlated with decreased islet function, as indicated by decreased preproinsulin (INS) pre-mRNA expression (r=−0.45, p<0.001) assessed by the single islet gene expression assay (RT-PCR). TNF-α receptor blocker, Etanercept, abolished TNF-α mediated PUMA mRNA up-regulation in human islets. PUMA mRNA and INS pre-mRNA expressions are used herein as markers for islet health under cytokine insults.

Data set [3] has as its target TNF-α (Homo sapiens, UniProt P01375). To be noted: cited from earlier work.
A further data set deals with T1, IFN-γ (Homo sapiens, UniProt P01579).
T1 sequence (P01579 24-161 limits assumed): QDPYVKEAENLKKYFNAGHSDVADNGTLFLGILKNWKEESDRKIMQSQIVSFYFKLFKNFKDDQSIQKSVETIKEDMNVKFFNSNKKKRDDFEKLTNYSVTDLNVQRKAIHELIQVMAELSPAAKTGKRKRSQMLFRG
To be noted: cited from earlier work.

Sequence of TNF-α (Homo sapiens, UniProt P01375) (P01375 77-233 limits assumed, species assumed): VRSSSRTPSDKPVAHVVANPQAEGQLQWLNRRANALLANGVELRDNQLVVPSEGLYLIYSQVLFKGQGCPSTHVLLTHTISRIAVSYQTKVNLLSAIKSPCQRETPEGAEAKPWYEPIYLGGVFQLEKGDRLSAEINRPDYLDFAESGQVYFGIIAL

Regarding lipopolysaccharide [LPS], the “stimulatory effect / mRNA response compared to LPS” value in data set [1] is reported as “highest stimulatory effect”.
For the substance Etanercept, in the data set with TNF-α [2], the “TNF-α mediated PUMA mRNA up-regulation” value is “abolished”.
Take “YCWSQYLCY (disulfide 2-8 (inferred)) [antagonizing peptide for TNF-α]”: the “antagonism of TNF-α” value with TNF-α [3] is on record as “potent antagonists”.
As for “AYC(acm)RDGKIGPPKLDIRKEEKQI (AYC(Acm)RDGKIGPPKLDIRKEEKQI) [antagonizing peptide for IFN-γ; acm: acetamidomethyl]”, the “antagonism of IFN-γ” value with IFN-γ is on record as “potent antagonists”.
